From patent US20220402914A1, “Tryptoline-Based Benzothiazoles and their use as Antibiotics and Antibiotic Resistance-Modifying Agents” (The Regents of the University of Colorado, a body corporate, priority 2019, published 2022)
Converted amounts (≈) assume the structure as drawn. “And” between values parts separate entries of the source, which are not always exact repeats. Equal entries are not always repeated.

Tests used:
MRSA ATCC BAA-44 [1] = assay: Minimum re-sensitizing concentration (MRC) in the presence of cefazolin; format: cell-based, Staphylococcus aureus; conditions: MRSA BAA-44, cefazolin
Method: (§1) RMA activity of the analogues was tested by assessing their abilities to sensitize MRSA to the antibiotic cefazolin (a first-generation cephalosporin). The well characterized strain MRSA ATCC BAA-44 was tested as previously described. […] The minimal inhibitory concentration (MIC), or the lowest concentration at which S. aureus is considered susceptible to an antibacterial, was determined by the standard broth microdilution method detailed in the CLSI handbook. RMA activity was compared by the ratio of MIC/MRC. The half growth inhibitory concentration (GI50) of each analogue against HeLa cells was determined as previously described. […] The luminescence of each sample was recorded in an Envision Multilabel Plate Reader (Perkin Elmer). Results of MICs and MRCs were confirmed by testing in triplicate. The GI50 assay was performed in duplicate.

HeLa cells = assay: GI50 against HeLa cells, Cell Titer Glo viability assay; format: cell-based, human; conditions: 24 h
Method: as §1

MRSA ATCC BAA-44 [2] = assay: Minimal inhibitory concentration (MIC), standard broth microdilution; format: cell-based, Staphylococcus aureus; conditions: for MIC: Staphylococcus aureus, MRSA BAA-44 strain, read-out: MIC; for concentration that inhibited the growth of MRSA BAA-44 on average (antibiotic controls): antibiotic alone; for MIC (in words): MRSA BAA-44
Method: as §1

Compound | MIC (MRSA ATCC BAA-44 [2]) [µg/mL] | GI50 (HeLa cells) [µg/mL] | also measured
CN(C)C(=O)C1CN(c2nc3ccc(Cl)cc3s2)Cc2[nH]c3ccc(Cl)cc3c21 (racemic) [Compound 9, 6-Chloro-2-(6-chlorobenzo[d]thiazol-2-yl)-N,N-dimethyl-2,3,4,9-tetrahydro-1H-pyrido[3,4-b]indole-4-carboxamide] |  |  | RMA activity (in words) (MRSA ATCC BAA-44 [1]): significantly decreased or abolished the RMA activity
OCC1CN(c2nc3ccc(Cl)cc3s2)Cc2[nH]c3ccc(Cl)cc3c21 (racemic) [Compound 10, (6-Chloro-2-(6-chlorobenzo[d]thiazol-2-yl)-2,3,4,9-tetrahydro-1H-pyrido[3,4-b]indol-4-yl)methanol] |  | 10.8 (≈ 26.7 µM) | 
COCOCC1CN(c2nc3ccc(Cl)cc3s2)Cc2[nH]c3ccc(Cl)cc3c21 (racemic) [Compound 11, 6-Chloro-2-(6-chloro-4-((methoxymethoxy)methyl)-1,3,4,9-tetrahydro-2H-pyrido[3,4-b]indol-2-yl)benzo[d]thiazole] |  | 7.0 (≈ 15.6 µM) | 
Cl.NCCSCC1CN(c2nc3ccc(Cl)cc3s2)Cc2[nH]c3ccc(Cl)cc3c21 (racemic) [Compound 12a, 2-(((6-Chloro-2-(6-chlorobenzo[d]thiazol-2-yl)-2,3,4,9-tetrahydro-1H-pyrido[3,4-b]indol-4-yl)methyl)thio)ethan-1-amine hydrochloride] |  | 3.8 | 
NCC1CN(c2nc3ccc(Cl)cc3s2)Cc2[nH]c3ccc(Cl)cc3c21 (racemic) [Compound 12b, (6-Chloro-2-(6-chlorobenzo[d]thiazol-2-yl)-2,3,4,9-tetrahydro-1H-pyrido[3,4-b]indol-4-yl)methanamine] |  | 1.5 (≈ 3.72 µM) | 
NCCNCC1CN(c2nc3ccc(Cl)cc3s2)Cc2[nH]c3ccc(Cl)cc3c21 (racemic) [Compound 12e, N1-((6-chloro-2-(6-chlorobenzo[d]thiazol-2-yl)-2,3,4,9-tetrahydro-1H-pyrido[3,4-b]indol-4-yl)methyl)ethane-1,2-diamine] |  | 2.4 (≈ 5.38 µM) | 
Cc1nnc(SCC2=C(C(=O)O)N3C(=O)[C@@H](NC(=O)Cn4cnnn4)[C@H]3SC2)s1 [Cefazolin, reference compound] |  |  | concentration that inhibited the growth of MRSA BAA-44 on average (antibiotic controls) (MRSA ATCC BAA-44 [2]): 128 µg/mL and 256 µg/mL
CO/N=C(\C(=O)N[C@@H]1C(=O)N2C(C(=O)O)=C(COC(N)=O)CS[C@H]12)c1ccco1 [Cefuroxime, reference compound] |  |  | concentration that inhibited the growth of MRSA BAA-44 on average (antibiotic controls) (MRSA ATCC BAA-44 [2]): 128 µg/mL and 256 µg/mL
Oc1cc(Cl)c2nc(N3CCc4c([nH]c5ccc(Cl)cc45)C3)sc2c1 [Compound 4aa, 4-Chloro-2-(6-chloro-1,3,4,9-tetrahydro-2H-pyrido[3,4-b]indol-2-yl)-1,3-benzothiazol-6-ol] | > 32 | 5.5 (≈ 14.1 µM) | 
NCCOc1cc(Cl)c2nc(N3CCc4c([nH]c5ccc(Cl)cc45)C3)sc2c1 [Compound 4ab, 2-((4-Chloro-2-(6-chloro-1,3,4,9-tetrahydro-2H-pyrido[3,4-b]indol-2-yl)benzo[d]thiazol-6-yl)oxy)ethan-1-amine] | 8 (≈ 18.5 µM) |  | 
Clc1ccc2[nH]c3c(c2c1)CCN(c1nc2c(Cl)cc(Br)cc2s1)C3 [Compound 4ac, 2-(6-Bromo-4-chloro-1,3-benzothiazol-2-yl)-6-chloro-2,3,4,9-tetrahydro-1H-pyrido[3,4-b]indole] | > 32 | 22 (≈ 48.5 µM) | 
Cl.NCC(=O)Nc1cc(Cl)c2nc(N3CCc4c([nH]c5ccc(Cl)cc45)C3)sc2c1 [Compound 4ae, 2-amino-N-(4-chloro-2-(6-chloro-1,3,4,9-tetrahydro-2H-pyrido[3,4-b]indol-2-yl)benzo[d]thiazol-6-yl)acetamide hydrochloride] |  | 14.8 | MIC (in words) (MRSA ATCC BAA-44 [2]): excellent MICs
FC(F)(F)c1cc(Br)cc2sc(N3CCc4c([nH]c5ccc(Cl)cc45)C3)nc12 [Compound 4ag, 2-[6-Bromo-4-(trifluoromethyl)-1,3-benzothiazol-2-yl]-6-chloro-2,3,4,9-tetrahydro-1H-pyrido[3,4-b]indole] | 4 (≈ 8.22 µM) | 5.9 (≈ 12.1 µM) | 
Cl.Nc1cc(C(F)(F)F)c2nc(N3CCc4c([nH]c5ccc(Cl)cc45)C3)sc2c1 [Compound 4ah, 2-(6-Chloro-1,3,4,9-tetrahydro-2H-pyrido[3,4-b]indol-2-yl)-4-(trifluoromethyl)-1,3-benzothiazol-6-aminium chloride] | 16 | 32 | 
Cl.NCCNc1cc(C(F)(F)F)c2nc(N3CCc4c([nH]c5ccc(Cl)cc45)C3)sc2c1 [Compound 4aj, N1-(2-(6-chloro-1,3,4,9-tetrahydro-2H-pyrido[3,4-b]indol-2-yl)-4-(trifluoromethyl)benzo[d]thiazol-6-yl)ethane-1,2-diamine hydrochloride] |  | 7.4 | MIC (in words) (MRSA ATCC BAA-44 [2]): excellent MICs
Clc1ccc2[nH]c3c(c2c1)CCN(c1nc2ccccc2s1)C3 [Compound 4b, 2-(1,3-Benzothiazol-2-yl)-6-chloro-2,3,4,9-tetrahydro-1H-pyrido[3,4-b]indole] |  |  | RMA activity (in words) (MRSA ATCC BAA-44 [1]): no RMA activity
Cc1ccc2nc(N3CCc4c([nH]c5ccc(Cl)cc45)C3)sc2c1 [Compound 4c, 6-Chloro-2-(6-methyl-1,3-benzothiazol-2-yl)-2,3,4,9-tetrahydro-1H-pyrido[3,4-b]indole] |  |  | RMA activity (in words) (MRSA ATCC BAA-44 [1]): no RMA activity
Clc1ccc2[nH]c3c(c2c1)CCN(c1nc2ncccc2s1)C3 [Compound 4d, 6-Chloro-2-([1,3]thiazolo[4,5-b]pyridin-2-yl)-2,3,4,9-tetrahydro-1H-pyrido[3,4-b]indole] |  |  | RMA activity (in words) (MRSA ATCC BAA-44 [1]): abolished
FC(F)(F)c1cnc2nc(N3CCc4c([nH]c5ccc(Cl)cc45)C3)sc2c1 [Compound 4e, 6-Chloro-2-[6-(trifluoromethyl)[1,3]thiazolo[4,5-b]pyridin-2-yl]-2,3,4,9-tetrahydro-1H-pyrido[3,4-b]indole] |  |  | RMA activity (in words) (MRSA ATCC BAA-44 [1]): abolished
Clc1ccc2nc(N3CCc4c([nH]c5cccc(Cl)c45)C3)sc2c1 [Compound 4f, 5-Chloro-2-(6-chloro-1,3-benzothiazol-2-yl)-2,3,4,9-tetrahydro-1H-pyrido[3,4-b]indole] | > 16 |  | 
Clc1ccc2nc(N3CCc4c([nH]c5c(Cl)cccc45)C3)sc2c1 [Compound 4h, 8-Chloro-2-(6-chloro-1,3-benzothiazol-2-yl)-2,3,4,9-tetrahydro-1H-pyrido[3,4-b]indole] | > 16 |  | 
Clc1ccc2nc(N3CCc4c([nH]c5ccc(Br)cc45)C3)sc2c1 [Compound 4j, 6-Bromo-2-(6-chloro-1,3-benzothiazol-2-yl)-2,3,4,9-tetrahydro-1H-pyrido[3,4-b]indole] | 4 (≈ 9.55 µM) |  | 
CCOC(=O)C1c2[nH]c3ccc(Cl)cc3c2CCN1c1nc2ccc(Cl)cc2s1 (stereo not shown) [Compound 4l, Ethyl 6-chloro-2-(6-chloro-1,3-benzothiazol-2-yl)-2,3,4,9-tetrahydro-1H-pyrido[3,4-b]indole-1-carboxylate] |  |  | RMA activity (in words) (MRSA ATCC BAA-44 [1]): abolished
CCn1c2c(c3cc(Cl)ccc31)CCN(c1nc3ccc(Cl)cc3s1)C2 [Compound 4o, 6-Chloro-2-(6-chloro-1,3-benzothiazol-2-yl)-9-ethyl-2,3,4,9-tetrahydro-1H-pyrido[3,4-b]indole] |  |  | RMA activity (in words) (MRSA ATCC BAA-44 [1]): abolished
Clc1cc(Cl)c2nc(N3CCc4c([nH]c5ccc(Cl)cc45)C3)sc2c1 [Compound 4x, 6-Chloro-2-(4,6-dichloro-1,3-benzothiazol-2-yl)-2,3,4,9-tetrahydro-1H-pyrido[3,4-b]indole] | 2 (≈ 4.89 µM) | 16.1 (≈ 39.4 µM) | MIC (in words) (MRSA ATCC BAA-44 [2]): excellent MICs
Clc1ccc2[nH]c3c(c2c1)CCN(c1nc2c(Cl)c(Cl)c(Cl)cc2s1)C3 [Compound 4y, 6-Chloro-2-(4,5,6-trichloro-1,3-benzothiazol-2-yl)-2,3,4,9-tetrahydro-1H-pyrido[3,4-b]indole] | 2 (≈ 4.51 µM) | 11.7 (≈ 26.4 µM) | MIC (in words) (MRSA ATCC BAA-44 [2]): excellent MICs

Continued, in another order:

MIC (MRSA ATCC BAA-44 [2]) [µg/mL] | Compound | GI50 (HeLa cells) [µg/mL] | also measured
2 (≈ 4.64 µM) | CN(C)CC1CN(c2nc3ccc(Cl)cc3s2)Cc2[nH]c3ccc(Cl)cc3c21 (racemic) [Compound 12c, 1-(6-Chloro-2-(6-chlorobenzo[d]thiazol-2-yl)-2,3,4,9-tetrahydro-1H-pyrido[3,4-b]indol-4-yl)-N,N-Dimethylmethanamine] | 5.2 (≈ 12.1 µM) | 
8 | C[N+](C)(C)CC1CN(c2nc3ccc(Cl)cc3s2)Cc2[nH]c3ccc(Cl)cc3c21.[I-] (racemic) [Compound 12d, 1-(6-Chloro-2-(6-chlorobenzo[d]thiazol-2-yl)-2,3,4,9-tetrahydro-1H-pyrido[3,4-b]indol-4-yl)-N,N,N-trimethylmethanaminium iodide] |  | 
4 (≈ 9.29 µM) | N=CNCC1CN(c2nc3ccc(Cl)cc3s2)Cc2[nH]c3ccc(Cl)cc3c21 (racemic) [Compound 12f, N-((6-chloro-2-(6-chlorobenzo[d]thiazol-2-yl)-2,3,4,9-tetrahydro-1H-pyrido[3,4-b]indol-4-yl)methyl)formimidamide] | 3.8 (≈ 8.83 µM) | 
4 (≈ 10.6 µM) | S=C(Nc1ccc(Cl)cc1)N1CCc2c([nH]c3ccc(Cl)cc23)C1 [Compound 5a, 6-Chloro-N-(4-chlorophenyl)-1,3,4,9-tetrahydro-2H-pyrido[3,4-b]indole-2-carbothioamide] |  | 
2 (≈ 4.88 µM) | FC(F)(F)c1cccc(NC(=S)N2CCc3c([nH]c4ccc(Cl)cc34)C2)c1 [Compound 5c, 6-Chloro-N-[3-(trifluoromethyl)phenyl]-1,3,4,9-tetrahydro-2H-pyrido[3,4-b]indole-2-carbothioamide] |  | 
